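Results reflect a 48-hour exposure of cells in 96-well plates to compound at five concentrations. The concentration for 50% growth inhibition is given as GI50.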 Activity calls are given as the source filed them. Cut-off read from the data, not from the text of the source: active = GI50 up to about 1.1 µM and inactive = higher.
Key:
Test in all cases: NCI anticancer screen, dose series, 48 h
[1] = tested on: SF-539
[2] = tested on: A549
[3] = tested on: SK-MEL-28
[4] = tested on: HT-29
[5] = tested on: T47D
[6] = tested on: BT-549
[7] = tested on: OVCAR-5
[8] = tested on: NCI-H460
[9] = tested on: IGROV-1
[10] = tested on: MDA-MB-231
[11] = tested on: Malme-3M
[12] = tested on: OVCAR-3
[13] = tested on: SNB-75
[14] = tested on: UACC-257
[15] = tested on: SF-268
[16] = tested on: SW-620
[17] = tested on: HOP-92
[18] = tested on: COLO 205
[19] = tested on: MDA-MB-435
[20] = tested on: 786-0
[21] = tested on: RXF 393
[22] = tested on: SK-MEL-5
[23] = tested on: DU-145
[24] = tested on: ACHN
[25] = tested on: HCT-15
[26] = tested on: SK-OV-3
[27] = tested on: HOP-62
[28] = tested on: NCI-H226
[29] = tested on: SNB-19
[30] = tested on: UO-31
[31] = tested on: UACC-62
[32] = tested on: SF-295
[33] = tested on: OVCAR-8
[34] = tested on: HCC 2998
[35] = tested on: EKVX
[36] = tested on: KM12
[37] = tested on: SR
[38] = tested on: Hs-578T
[39] = tested on: CAKI-1
[40] = tested on: NCI/ADR-RES
[41] = tested on: SK-MEL-2
[42] = tested on: RPMI-8226
[43] = tested on: M14
[44] = tested on: SN12C
[45] = tested on: MDA-N
[46] = tested on: PC-3
[47] = tested on: K562
[48] = tested on: TK-10
[49] = tested on: NCI-H522
[50] = tested on: U-251
[51] = tested on: MOLT-4

Measured: GI50

CC(NC(=O)C(OC(=O)C(C)NC(=O)OC(C)(C)C)C(C)C)C(=O)OC(C(=O)O)C(C)C (stereo unspecified)
inactive: [1] > 100 µM | [2] > 100 µM | [3] > 100 µM | [4] > 100 µM | [5] > 100 µM | [6] > 100 µM | [7] > 100 µM | [8] > 100 µM | [9] > 100 µM | [10] > 100 µM | [11] > 100 µM | [12] > 100 µM | [13] > 100 µM | [14] > 100 µM | [15] > 100 µM | [16] > 100 µM | [17] > 100 µM | [18] > 100 µM | [19] > 100 µM | [20] > 100 µM | [21] > 100 µM | [22] > 100 µM | [23] > 100 µM | [24] > 100 µM | [26] > 100 µM | [27] > 100 µM | [28] > 100 µM | [29] > 100 µM | [30] > 100 µM | [31] > 100 µM | [32] > 100 µM | [33] > 100 µM | [34] > 100 µM | [35] > 100 µM | [36] > 100 µM | [37] > 100 µM | [38] > 100 µM | [39] > 100 µM | [40] > 100 µM | [41] > 100 µM | [42] > 100 µM | [43] > 100 µM | [44] > 100 µM | [45] > 100 µM | [46] > 100 µM | [47] > 100 µM | [48] > 100 µM | [49] > 100 µM | [50] > 100 µM | [51] > 100 µM
> 100 µM: [25]
